This passage reports IC50 results from patent publication US10513694B2, “Thienopyrrole compounds and uses thereof” (PROMEGA CORPORATION, priority 2015, dated 2019).

One may read the IC50 as the concentration that inhibits the measured activity by half.

Read-outs that look alike come from different tables or passages of the source.

The test deals with NANOLUC® enzyme (Oplophorus gracilirostris, UniProt Q9GV45, A31E/A60N/A81I/F95D/I117V/K70R/L54V/L99Q/M102K/N193R/P142E/Q151K/Q38R/Q45L/V71I/Y165I). The experiment in a line: Inhibitor IC50 determination (NANOLUC enzyme, furimazine). The class given is biochemical. The conditions noted are these: 0.4 ng/ml NANOLUC enzyme, final furimazine 10 uM (at Km). On the procedure:
The following example provides the IC50 values for the compounds disclosed herein. See Table 5 NANOLUC® enzyme was diluted to 0.4 ng/ml in CO2 independent media+10% FBS to make the detection reagent. A 3× dilution series of each inhibitor was then made in the detection reagent. A “no inhibitor” control was also made for each sample. 50 ul of each inhibitor dilution was mixed with 50 ul of NanoGlo buffer containing 20 uM furimazine. (Final furimazine concentration is 10 uM which is at Km.), and luminescence measured. Each sample was normalized to the “no inhibitor” control. The […] values were then determined using GraphPad Prism (log [inhibitor] vs. normalized response).

Chain of NANOLUC® enzyme (Q9GV45 28-196 with tags or gaps with the stated changes limits assumed): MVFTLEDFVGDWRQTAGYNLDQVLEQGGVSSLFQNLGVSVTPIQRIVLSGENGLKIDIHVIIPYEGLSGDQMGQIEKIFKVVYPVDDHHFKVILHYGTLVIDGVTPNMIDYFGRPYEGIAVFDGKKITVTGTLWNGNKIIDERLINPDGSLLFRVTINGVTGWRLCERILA

Molecule `COC(=O)[C@H]1CC[C@H](NC(=O)c2cc3sccc3n2CC(=O)N2CCCc3cc(C)ccc32)CC1` [JRW-0331, Methyl trans-4-(4-(2-(6-methyl-3,4-dihydroquinolin-1(2H)-yl)-2-oxoethyl)-4H-thieno[3,2-b]pyrrole-5-carboxamido)cyclohexane-1-carboxylate] registered a concentration for half-maximal inhibition (IC50) (IC50 (uM)) of 16.9 µM. Still for that read-out and setting: the same measure for `CCN(C(=O)Cn1c(C(=O)N[C@H]2CC[C@H](C(=O)OC)CC2)cc2sccc21)c1cccc(OC)c1` [JRW-0327, Methyl trans-4-(4-(2-(ethyl(3-methoxyphenyl)amino)-2-oxoethyl)-4H-thieno[3,2-b]pyrrole-5-carboxamido)cyclohexane-1-carboxylate]: 0.11 µM; for `CCN(C(=O)Cn1c(C(=O)N[C@H]2CC[C@H](C(=O)OC)CC2)cc2sccc21)c1ccc(CO)cc1` [JRW-0335, Methyl trans-4-(4-(2-(ethyl(4-(hydroxymethyl)phenyl)amino)-2-oxoethyl)-4H-thieno[3,2-b]pyrrole-5-carboxamido)cyclohexane-1-carboxylate]: 1.9 µM. The molecule `CCN(C(=O)Cn1c(C(=O)N[C@H]2CC[C@H](C(=O)OC)CC2)cc2sccc21)c1cccc(C(N)=O)c1` [JRW-0322, Methyl trans-4-(4-(2-((3-carbamoylphenyl)(ethyl)amino)-2-oxoethyl)-4H-thieno[3,2-b]pyrrole-5-carboxamido)cyclohexane-1-carboxylate] returned an IC50 (IC50 (uM)) of 0.2 µM. With `COCCOCCN(C(=O)Cn1c(C(=O)N[C@H]2CC[C@H](C(=O)OC)CC2)cc2sccc21)c1cccc(C)c1` [JRW-0110, Methyl-trans-4-(4-(2-((2-(2-methoxyethoxy)ethyl)(m-tolyl)amino)-2-oxoethyl)-4H-thieno[3,2-b]pyrrole-5-carboxamido)cyclohexane-1-carboxylate], the concentration for half-maximal inhibition (IC50) (IC50 (uM)) is 3 µM. The same measure, in the same setting: the result for `CCOC(=O)Cc1ccc(NC(=O)c2cc3sccc3n2CC(=O)N(CC)c2cccc(C)c2)cc1` [JRW-0152, ethyl 2-(4-(4-(2-(ethyl(m-tolyl)amino)-2-oxoethyl)-4H-thieno[3,2-b]pyrrole-5-carboxamido)phenyl)acetate] reads 4.3 µM; that for `CCN(C(=O)Cn1c(C(=O)N2CCCC2)cc2sccc21)c1cccc(C)c1` [JRW-0008, N-ethyl-2-(5-(pyrrolidine-1-carbonyl)-4H-thieno[3,2-b]pyrrol-4-yl)-N-(m-tolyl)acetamide], 1.1 µM. The same measure, in the same setting: the result for `CCN(C(=O)Cn1c(C(=O)N[C@H]2CC[C@H](C(=O)N[C@H]3CC[C@H](C(=O)OC)CC3)CC2)cc2sccc21)c1cccc(C)c1` [JRW-0243, methyl-trans-4-(trans-4-(4-(2-(ethyl(m-tolyl)amino)-2-oxoethyl)-4H-thieno[3,2-b]pyrrole-5-carboxamido)cyclohexane-1-carboxamido)cyclohexane-1-carboxylate] reads 0.21 µM; that for `CCN(C(=O)Cn1c(C(=O)N[C@H]2CC[C@H](C(=O)OC)CC2)cc2ccc(OC)cc21)c1cccc(C)c1` [JRW-0359, Methyl trans-4-(1-(2-(ethyl(m-tolyl)amino)-2-oxoethyl)-6-methoxy-1H-indole-2-carboxamido)cyclohexane-1-carboxylate], 3 µM. Same read-out and setting: the same measure for `CCN(C(=O)Cn1c(C(=O)N[C@H]2CC[C@H](C(=O)NCCN(C)C)CC2)cc2sccc21)c1cccc(C)c1` [JRW-0044, N-(trans-4-((2-(dimethylamino)ethyl)carbamoyl)cyclohexyl)-4-(2-(ethyl(m-tolyl)amino)-2-oxoethyl)-4H-thieno[3,2-b]pyrrole-5-carboxamide]: 16.8 µM; for `CCN(C(=O)Cn1c(C(=O)N[C@H]2CC[C@H](C(=O)NCCCCCC(=O)OC)CC2)cc2sccc21)c1cccc(C)c1` [JRW-0145, methyl 6-(trans-4-(4-(2-(ethyl(m-tolyl)amino)-2-oxoethyl)-4H-thieno[3,2-b]pyrrole-5-carboxamido)cyclohexane-1-carboxamido)hexanoate]: 0.12 µM.

Take `CCN(C(=O)Cn1c(C(=O)N[C@H]2CC[C@H](C(=O)OC)CC2)cc2sccc21)c1ccccc1` [JRW-0318, Methyl trans-4-(4-(2-(ethyl(phenyl)amino)-2-oxoethyl)-4H-thieno[3,2-b]pyrrole-5-carboxamido)cyclohexane-1-carboxylate]: the midpoint of inhibition (IC50 (uM)), the IC50, lay at 0.11 µM.

As to `CCN(C(=O)Cn1c(C(=O)N[C@H]2CC[C@H](C(=O)NC3CCN(C(C)=O)CC3)CC2)cc2sccc21)c1cccc(C)c1` [JRW-0195, N-(trans-4-((1-acetylpiperidin-4-yl)carbamoyl)cyclohexyl)-4-(2-(ethyl(m-tolyl)amino)-2-oxoethyl)-4H-thieno[3,2-b]pyrrole-5-carboxamide], under “IC50 (uM)”, half-maximal inhibition (IC50) was put at 0.48 µM.

As for `CCN(C(=O)Cn1c(C(=O)N[C@H]2CC[C@H](C(=O)OC)CC2)cc2ccccc21)c1cccc(C)c1` [JRW-0355, Methyl trans-4-(1-(2-(ethyl(m-tolyl)amino)-2-oxoethyl)-1H-indole-2-carboxamido)cyclohexane-1-carboxylate], the IC50 (IC50 (uM)) amounted to 0.052 µM. The same measure, in the same setting: the result for `CCc1cccc(N(CC)C(=O)Cn2c(C(=O)N[C@H]3CC[C@H](C(=O)NCCCCCCO)CC3)cc3ccccc32)c1` [JRW-0430, 1-(2-(Ethyl(3-ethylphenyl)amino)-2-oxoethyl)-N-(trans-4-((6-hydroxyhexyl)carbamoyl)cyclohexyl)-1H-indole-2-carboxamide] reads 0.0021 µM; that for `CCN(C(=O)Cn1c(C(=O)N[C@H]2CC[C@@H](C(=O)NCCCCCC(=O)O)CC2)cc2sccc21)c1cccc(C)c1` [JRW-0264, 6-(cis-4-(4-(2-(ethyl(m-tolyl)amino)-2-oxoethyl)-4H-thieno[3,2-b]pyrrole-5-carboxamido)cyclohexane-1-carboxamido)hexanoic acid], 0.24 µM; that for `CCN(C(=O)Cn1c(C(=O)N[C@H]2CC[C@H](C(=O)OC)CC2)cc2sccc21)c1cccc(CC(C)C)c1` [JRW-0508, Methyl trans-4-(4-(2-(ethyl(3-isobutylphenyl)amino)-2-oxoethyl)-4H-thieno[3,2-b]pyrrole-5-carboxamido)cyclohexane-1-carboxylate], 0.027 µM. For the molecule “N-(trans-4-((6-(3′,6′-dihydroxy-3-oxo-3H-spiro[isobenzofuran-1,9′-xanthene]-5(6)-carboxamido)hexyl)carbamoyl)cyclohexyl)-4-(2-(ethyl(m-tolyl)amino)-2-oxoethyl)-4H-thieno[3,2-b]pyrrole-5-carboxamide [JRW-0200]”, the IC50 (read-out: IC50) was 0.078 µM. Where the note is “IC50 (uM)”, `CCCCCCN(C(=O)Cn1c(C(=O)N[C@H]2CC[C@H](C(=O)OC)CC2)cc2sccc21)c1cccc(C)c1` [JRW-0149, methyl-trans-4-(4-(2-(hexyl(m-tolyl)amino)-2-oxoethyl)-4H-thieno[3,2-b]pyrrole-5-carboxamido)cyclohexane-1-carboxylate] returned an IC50 of 2.5 µM. Still for that read-out and setting: the result for `CCN(C(=O)Cn1c(C(=O)N[C@H]2CC[C@H](C(=O)OC)CC2)cc2sccc21)c1cccc(C#N)c1` [JRW-0321, Methyl trans-4-(4-(2-((3-cyanophenyl)(ethyl)amino)-2-oxoethyl)-4H-thieno[3,2-b]pyrrole-5-carboxamido)cyclohexane-1-carboxylate] reads 0.16 µM; that for `COCCOCCN(C(=O)Cn1c(C(=O)NC2CCCCC2)cc2sccc21)c1cccc(C)c1` [JRW-0109, N-cyclohexyl-4-(2-((2-(2-methoxyethoxy)ethyl)(m-tolyl)amino)-2-oxoethyl)-4H-thieno[3,2-b]pyrrole-5-carboxamide], 10.1 µM.

`CCN(C(=O)Cn1c(C(=O)N[C@H]2CC[C@H](C(=O)NCCCCCCO)CC2)cc2sccc21)c1cccc(C)c1` [JRW-0242, 4-(2-(ethyl(m-tolyl)amino)-2-oxoethyl)-N-(trans-4-((6-hydroxyhexyl)carbamoyl)cyclohexyl)-4H-thieno[3,2-b]pyrrole-5-carboxamide] gave an IC50 (IC50 (uM)) of 0.035 µM.
